Laboratory results: paper PMC6270751, “N-Substituted 5-Amino-6-methylpyrazine-2,3-dicarbonitriles: Microwave-Assisted Synthesis and Biological Properties” (Molecules, 2014)
≈ marks a conversion by molar mass, not a printed value. Where “and” joins values, the source holds several entries; their conditions need not be identical. Equal entries are not always repeated. Where two headings read alike, the source gives them in different places.

Legend:
[1] = system: photosynthetic electron transport (PET) in spinach chloroplasts; parameters: method as in earlier work; conditions: DCMU standard; read-out: IC50 PET inhibition in spinach chloroplasts (standard); cited from earlier work
[2] = system: M. tuberculosis H37Rv CNCTC My 331/88; experiment: Antimycobacterial in vitro screening, microdilution broth panel method, Alamar Blue; assay type: cell-based, Mycobacterium tuberculosis; conditions: 37 °C; for MIC: Mycobacterium tuberculosis, H37RV, 336 h, pH 6, Sula's medium pH 6.0, 14 days; for MIC M.tuberculosis H37Rv: Sula's medium pH 6.0, 14 days
[3] = system: photosynthetic electron transport (PET) in spinach chloroplasts; experiment: Inhibition of photosynthetic electron transport (PET) in spinach chloroplasts, DCPIP photoreduction; assay type: biochemical, Spinacia oleracea L.; conditions: for IC50 / IC50 PET inhibition in spinach chloroplasts: chlorophyll 30 mg/L, phosphate buffer pH 7.2
Experimental: Chloroplasts were prepared from spinach (Spinacia oleracea L.) according to Masarovicova and Kralova. The inhibition of photosynthetic electron transport (PET) in spinach chloroplasts was determined spectrophotometrically (Genesys 6, Thermo Scientific, Madison, WI, USA) using an artificial electron acceptor 2,6-dichlorophenol-indophenol (DCPIP) according to Kralova et al. and the rate of photosynthetic electron transport (PET) was monitored as a photo-reduction of DCPIP. The measurements were carried out in a phosphate buffer (0.02 mol/L, pH 7.2) containing sucrose (0.4 mol/L), MgCl2 (0.005 mol/L) and NaCl (0.015 mol/L). The chlorophyll content was 30 mg/L in these experiments and the samples were irradiated (~100 W/m^2) from a 10 cm distance with halogen lamp (250 W) using a 4 cm water filter to prevent warming of the samples (suspension temperature […]). The studied compounds were dissolved in DMSO due to their limited water solubility. […] The inhibitory efficiency of the studied compounds was expressed as the IC50 values, i.e., molar concentration of the compounds causing 50% decrease in the oxygen evolution relative to the untreated control.

[4] = system: Trichophyton mentagrophytes 445; experiment: Antifungal in vitro screening, microdilution broth method; assay type: cell-based; conditions: for MIC: Trichophyton mentagrophytes, 445, RPMI 1640, pH 7.0, 35 °C, read-out: MIC against Trichophyton mentagrophytes; for activity against Trichophyton mentagrophytes: result in words
Experimental: Antifungal evaluation was also accomplished with microdilution broth method. On the contrary, there was used RPMI 1640 broth with glutamine as medium and conditions were humid and dark atmosphere, pH 7.0 (buffered with 3-morpholinopropane-1-sulfonic acid) and 35 °C. Eight fungal strains were used (Candida albicans ATCC 44859, Candida tropicalis 156, Candida krusei E28, Candida glabrata 20/I, Trichosporon asahii 1188, Aspergillus fumigatus 231, Absidia corymbifera 272, Trichophyton mentagrophytes 445) together with 4 antimycotic standards amphotericin B, voriconazole, nystatin and fluconazole.

[5] = Lipophilicity log k by RP-HPLC; conditions: for log k: RP-HPLC capacity factor, C18, MeOH 70%/H2O 30%, 30 °C; for π: π = log k(substituted) – log k(unsubstituted)
Source text: Experimental lipophilicity parameter log k was ascertained using an Agilent Technologies 1200 SL HPLC system with a SL G1315C Diode-Array Detector, ZORBAX XDB-C18 5 μm, 4 × 4 mm, Part No. 7995118-504 chromatographic pre-column and ZORBAX Eclipse XDB-C18 5 μm, 4.6 × 250 mm, Part No. 7995118-585 column (Agilent Technologies Inc., Colorado Springs, CO, USA). The separation process was controlled by Agilent ChemStation, version B.04.02 extended by spectral module (Agilent Technologies Inc.). A solution of MeOH (HPLC grade, 70%) and H2O (HPLC-Milli-Q Grade, 30%) was used as mobile phase. The total flow of the column was 1.0 mL/min, injection 20 μL, column temperature 30 °C. Detection wavelength λ= 210 nm and monitor wavelength λ= 270 nm were chosen for this measurement. The KI methanol solution was used for the dead time (TD) determination. Retention times (TR) of synthesized compounds were measured in minutes. The capacity factors k were calculated using Microsoft Excel according to formula k = (TR − TD)/TD, where TR is the retention time of the solute and TD denotes the dead time obtained via an unretained analyte. Log k, calculated from the capacity factor k, is used as the lipophilicity index converted to log P scale.

[6] = system: M. avium CNCTC My 152/73; experiment: Antimycobacterial in vitro screening, non-tuberculosis strain M. avium; assay type: cell-based, Mycobacterium avium; conditions: result in words
[7] = system: M. kansasii CNCTC My 235/80; experiment: Antimycobacterial in vitro screening, non-tuberculosis strain M. kansasii; assay type: cell-based, Mycobacterium kansasii; conditions: result in words

Row | Compound | IC50 [1] | MIC [2] | IC50 [3] | MIC [4] | activity against Trichophyton mentagrophytes [4] | log k [5] | π [5] | IC50 PET inhibition in spinach chloroplasts [3] | MIC M.tuberculosis H37Rv [2] | PET inhibitory activity relative to DCMU (times lower) ([3]; ratio of IC50 to standard DCMU) | activity against M. avium 152 [6] | activity against M. kansasii [7]
1 | CN(C)C(=O)Nc1ccc(Cl)c(Cl)c1 [DCMU, 3-(3,4-dichlorophenyl)-1,1-dimethylurea] | ~1.9 µM and 1.9 µM | – | – | – | – | – | – | – | – | – | – | –
2 | Cc1nc(C#N)c(C#N)nc1NCc1ccccc1F [Compound 10, 5-[(2-Fluorobenzyl)amino]-6-methylpyrazine-2,3-dicarbonitrile] | – | 12.5 µg/mL (≈ 46.8 µM) | 196 µM | 500 µM (≈ 134 µg/mL) | insignificant activity | 0.3042 | 0.0048 | – | – | – | – | –
3 | Cc1nc(C#N)c(C#N)nc1NCc1ccccc1 [Compound 6, 5-(Benzylamino)-6-methylpyrazine-2,3-dicarbonitrile] | – | 25 µg/mL (≈ 100 µM) | – | – | – | 0.2994 | 0 | inactive | – | – | – | –
4 | NNC(=O)c1ccncc1 [INH, isoniazid, reference compound] | – | 1.56 µg/mL (≈ 11.4 µM) | – | – | – | – | – | – | – | – | – | –
5 | Cc1nc(C#N)c(C#N)nc1NCc1cccc(Cl)c1 [Compound 8, 5-[(3-Chlorobenzyl)amino]-6-methylpyrazine-2,3-dicarbonitrile] | – | 12.5 µg/mL (≈ 44.1 µM) | 57.4 µM | – | – | 0.5172 | 0.2178 | – | – | – | – | –
6 | Cc1nc(C#N)c(C#N)nc1NCc1cccc(C(F)(F)F)c1 [Compound 2, 5-Methyl-6-{[3-(trifluoromethyl)benzyl]amino}pyrazine-2,3-dicarbonitrile] | – | 12.5 µg/mL (≈ 39.4 µM) | 37.7 µM | – | – | 0.5369 | 0.2375 | – | – | – | – | –
7 | COc1ccc(CNc2nc(C#N)c(C#N)nc2C)cc1 [Compound 5, 5-[(4-Methoxybenzyl)amino]-6-methylpyrazine-2,3-dicarbonitrile] | – | > 100 µg/mL | 465 µM | – | – | 0.2820 | −0.0174 | – | >100 µg/mL | – | – | –
8 | NC(=O)c1cnccn1 [PZA, pyrazinamide, reference compound] | – | 12.5 µg/mL (≈ 102 µM) | – | – | – | – | – | – | – | – | – | –
9 | Cc1nc(C#N)c(C#N)nc1NCc1ccccc1Cl [Compound 9, 5-[(2-Chlorobenzyl)amino]-6-methylpyrazine-2,3-dicarbonitrile] | – | 6.25 µg/mL (≈ 22 µM) | 79 µM | – | – | 0.4663 | 0.1669 | – | – | – | – | –
10 | Cc1nc(C#N)c(C#N)nc1NCc1ccc(Cl)cc1 [Compound 15, 5-[(4-Chlorobenzyl)amino]-6-methylpyrazine-2,3-dicarbonitrile] | – | 12.5 µg/mL (≈ 44.1 µM) | 86.5 µM | – | insignificant activity | 0.5384 | 0.2390 | – | – | – | – | –
11 | Cc1nc(C#N)c(C#N)nc1NCc1ccc(Cl)c(Cl)c1 [Compound 3, 5-[(3,4-Dichlorobenzyl)amino]-6-methylpyrazine-2,3-dicarbonitrile] | – | 6.25 µg/mL (≈ 19.6 µM) | 16.4 µM | – | – | 0.7538 | 0.4544 | – | – | 8.6 times | – | –
12 | Cc1ccccc1CNc1nc(C#N)c(C#N)nc1C [Compound 1, 5-Methyl-6-[(2-methylbenzyl)amino]pyrazine-2,3-dicarbonitrile] | – | > 100 µg/mL | 114 µM | – | – | 0.4668 | 0.1674 | – | >100 µg/mL | – | – | –
13 | Cc1nc(C#N)c(C#N)nc1NCc1ccc(C(F)(F)F)cc1 [Compound 11, 5-Methyl-6-{[4-(trifluoromethyl)benzyl]amino}pyrazine-2,3-dicarbonitrile] | – | 6.25 µg/mL (≈ 19.7 µM) | 39.6 µM | – | – | 0.5626 | 0.2632 | – | – | – | active | active
14 | Cc1nc(C#N)c(C#N)nc1NCc1ccccc1C(F)(F)F [Compound 12, 5-Methyl-6-{[2-(trifluoromethyl)benzyl]amino}pyrazine-2,3-dicarbonitrile] | – | 12.5 µg/mL (≈ 39.4 µM) | 71.6 µM | 125 µM (≈ 39.7 µg/mL) | – | 0.4865 | 0.1871 | – | – | – | active | active
15 | Cc1nc(C#N)c(C#N)nc1NCc1ccc(N)cc1 [Compound 7, 5-[(4-Aminobenzyl)amino]-6-methylpyrazine-2,3-dicarbonitrile] | – | 25 µg/mL (≈ 94.6 µM) | – | 500 µM (≈ 132 µg/mL) | insignificant activity | −0.2014 | −0.5008 | inactive | – | – | – | –
16 | Cc1ccc(CNc2nc(C#N)c(C#N)nc2C)cc1 [Compound 4, 5-Methyl-6-[(4-methylbenzyl)amino]pyrazine-2,3-dicarbonitrile] | – | 25 µg/mL (≈ 94.9 µM) | 105 µM | – | – | 0.5157 | 0.2163 | – | – | – | – | –
17 | Cc1nc(C#N)c(C#N)nc1NCc1cccc([N+](=O)[O-])c1 [Compound 14, 5-Methyl-6-[(3-nitrobenzyl)amino]pyrazine-2,3-dicarbonitrile] | – | 12.5 µg/mL (≈ 42.5 µM) | 487 µM | – | – | 0.1808 | −0.1186 | – | – | – | – | –
18 | COc1ccc(CNc2nc(C#N)c(C#N)nc2C)c(OC)c1 [Compound 13, 5-[(2,4-Dimethoxybenzyl)amino]-6-methylpyrazine-2,3-dicarbonitrile] | – | 25 µg/mL (≈ 80.8 µM) | – | – | – | 0.3699 | 0.0705 | inactive | – | – | – | –
